# Source: a melting point compilation (Tetko et al.; mined from patent text by program, amines drawn as free bases though some values may be those of a salt)
row,SMILES,melting point [°C]
1,Cc1cccc2c(=O)cc(C(=O)Nc3ccc(CC4SC(=O)NC4=O)cc3)oc12 (stereo not given),305 to 307
2,NCC1COc2cc(Cl)cc(-c3ccccc3F)c2N1 (stereo not given),95
3,CN(C)c1cnn(-c2ccccc2)c(=O)c1N,188 to 189
4,O=C(CCCOc1cc(-c2ccccc2)ccc1O)NO,148 to 152
5,CS(=O)c1c(C(=N)NN)nn(-c2c(Cl)cc(C(F)(F)F)cc2Cl)c1N (stereo not given),210
6,CC(C)CC(C=CCC(N)=O)NC(=O)C1CCCN1C(=O)OCc1ccccc1 (stereo not given),140 to 142
7,Cc1ccccc1C(=O)Nc1ccc(C(=O)N2CCc3cn(C)nc3-c3sccc32)cc1,257 to 260
8,Cc1cccc(C)c1NC(=O)CC1c2ccccc2Oc2ccccc21,249 to 250
9,NNC(=O)c1cnc2c(=O)[nH]c3ccccc3n2c1=O,> 300
10,COCOC1CCC2(C)C(=CCC3C4CCC(=O)C4(C)CCC32)C1 (stereo not given),130 to 132
11,CCc1nc2c(C)cc(C)cc2n1-c1ccc(CCNC(=O)NS(=O)(=O)c2ccc(C)cc2)cc1,108 to 112
12,CC(=NO)C1=CCCN(Cc2ccccc2)C1,103 to 105
13,O=C(O)c1ccc(Cn2ncc3ccccc32)cc1,178 to 179
14,CCC1CN(Cc2ccccc2)c2c3c(nc4cccc(c24)O1)CCCC3 (stereo not given),148 to 149
15,CCOCc1nc2c(N)nc(C)c(C)c2n1NC1CCCCC1,108 to 110
16,CC(C)(C)NS(=O)(=O)c1cnc(-c2cn(-c3nc(-c4ccc(Cl)cc4)cc(C(F)(F)F)n3)cn2)s1,261
17,CC(=O)NC1CCN(Cc2ccc(CCn3cnc4cc(-c5ccc(Cl)cc5)sc4c3=O)cc2)C1 (stereo not given),196 to 198
18,CC(C)c1ccc(N(Cc2ccc(OCC(F)(F)F)cc2)C(=O)Nc2c(C(C)C)cccc2C(C)C)cc1,138
19,CCCCN1C(=O)C2CC(c3ccc(N)cc3)(C2)C1=O,178 to 179
20,COCCOc1ccc(/C=C/COC(=O)NS(=O)(=O)N2CCCC2)c(Oc2ncc(C(F)(F)F)cc2Cl)c1,123 to 124
21,CN1CCN(C(=O)c2cc3ccccc3c(=O)[nH]2)CC1,170 to 172
22,COc1cc2c(cc1OC)CC(NCC(N)=O)C2,135 to 138
23,Cc1ccc(C#CC(C)N(O)C(N)=O)cc1 (stereo not given),144
24,CC(C)(O)c1cnn2c(-c3cccc(-c4ccccc4C#N)c3)cnc2n1,166
25,O=C(CC(=O)C(F)(F)F)c1ccc(OCc2ccccc2)cc1,220 to 224

row,SMILES,melting point [°C]
1,CC(C)(C)OC(=O)CO/N=C/c1cccc([N+](=O)[O-])c1,110
2,Cn1cncc1C(O)(c1ccc(Cl)cc1)c1ccc2c(c1)C(c1cccc(Cl)c1)OCC(=S)N2 (stereo not given),> 300
3,OC1(C2CCC(c3c(F)cccc3F)=N2)C=CC(c2ccccc2)=CC1 (stereo not given),217
4,CC1=C(CC2=NCCN2)CCc2ccccc21,223 to 224
5,C=CCOC(=O)OCN1C(=O)C(c2cn(C)c3ccccc23)=C(c2cn(C)c3cc([N+](=O)[O-])ccc23)C1=O,191 to 194
6,CCCS(=O)(=O)Oc1c(C(=O)c2ccc3c(c2C)C(N(C)C(=O)OC)CCS3(=O)=O)cnn1CC (stereo not given),156 to 159
7,COC(=O)COc1ccc(C(=O)CNC=O)cc1,116
8,O=C(CCCC(=O)C(F)(F)F)c1cccc(OCc2ccccc2)c1,75.3 to 80.3
9,CC1NC(=O)NN=C1c1ccccn1 (stereo not given),212 to 214
10,CCOC(=O)C1CC(=O)c2nc(C)c(C)n2C1 (stereo not given),138 to 140
11,Cc1ccn(-c2ccc(Cl)c(Cl)c2)n1,46 to 47
12,O=S1(=O)N=CN(C2CCCCCCC2)c2cc(Cl)ccc21,209 to 211
13,COc1cc(F)cnc1OCC#Cc1ccc(Cl)nc1,101 to 102
14,Cc1coc2cc(Cl)cc(Cl)c12,45
15,CC(C)(C)Nc1nc2cc(Cl)c(Cl)cc2n1C1CC(CO)C(O)C1O (stereo not given),130 to 132
16,Cc1c(Cl)n(C)n(C)c1=O,37 to 38
17,CCc1nc(OC)c(NC(=O)N2CCN(c3cc(C)cc(C)c3)CC2)cc1C(=O)NC(C)C(=O)Nc1cc(CO)cc(Nc2c3ccccc3nc3ccc(C)cc23)c1 (stereo not given),164 to 166
18,O=C(Cn1nnnc1S)NO,105 to 107
19,Brc1cccc(OCc2ccc3ccccc3c2)c1,109 to 112
20,CC(C)Cc1cc(OCc2ccccc2)c2c(c1)OC(C)(C)CC2C(=O)Oc1ccc([N+](=O)[O-])cc1 (stereo not given),125 to 126
21,CN(C)C1(c2ccccc2)CCC2(NCCc3c2[nH]c2ccccc32)C(Sc2ccccc2)C1 (stereo not given),171 to 173
22,CCCCCCOc1ccc(C2OCC(C(=O)O)CO2)cc1 (stereo not given),30
23,Nc1ccc(CCC(=O)N(c2ccccc2)c2ccccc2)cc1[N+](=O)[O-],189 to 190
24,COc1ccc2c3c(c4cc(OC)c(OC)cc4c2c1)CC1CCCCN1C3 (stereo not given),193 to 195
25,O=c1ccn(-c2ccc3[nH]c(=O)c(=O)[nH]c3c2)cc1,> 300

row,SMILES,melting point [°C]
1,COC(=O)c1cc2ccc(OC)cc2n1CCN1CCC(NCc2cc3c(cn2)OCCO3)CC1,130
2,CCOC(=O)c1nnc2ccc(N3C(=O)C=CC3=O)cc2c1O,257 to 260
3,CCOC(=O)Cc1ccc2c(c1)CC(NC(C)=O)C2 (stereo not given),82 to 84
4,CC(C)(Cc1c[nH]c2ccccc12)NCC(O)COc1ccccc1Cl (stereo not given),150 to 154
5,CN1CN(c2cccc([N+](=O)[O-])c2)c2ncccc2C1=O,247 to 248
6,CCN1C(=O)OC(=Cc2ccc3c(c2)OCO3)C1=O,135 to 137
7,CN1CCC(c2c[nH]c3ccc(OS(=O)(=O)c4ccc(I)cc4)cc23)CC1,174 to 176
8,CC12CCC(=O)C(N)=C1CCC1C2CCC2(C)C(OC3CC3)CCC12 (stereo not given),85 to 88
9,Cc1cccc(-c2n[nH]cc2-c2ccc(F)c(-c3cnn(CCN4CCOCC4)c3)c2)n1,124
10,CCCCc1ccc(-c2ncc(C#N)cn2)cc1,109 to 110
11,NCCOC(=C1C2CC3CC(C2)CC1C3)c1cccc(O)c1,55
12,COc1c2c(cc3c(C)cc(=O)oc13)CC(C)O2 (stereo not given),113 to 115
13,Cc1nc(-c2ccccn2)c2nc(-c3ccccc3)cc-2[nH]1,182 to 183
14,Oc1ccc2c(c1)CCCC2Cc1c[nH]cn1 (stereo not given),200 to 205
15,CN(C)C(=O)Oc1c(N2CCCC2)c(=O)n(-c2ccccc2)c2ncccc12,218 to 220
16,CCOc1nc2ccccc2nc1N(CC)C(=O)N1CCN(c2cc(C)cc(C)c2)CC1,142 to 144
17,O=c1cc(N2CCOCC2)oc2cc(OS(=O)(=O)C(F)(F)F)ccc12,143 to 145
18,CCCNC(=O)c1ccc(-c2ccc3nnn(Cc4ccc5ncccc5c4)c3n2)cc1F,157 to 159
19,N#Cc1ccc2[nH]c(-c3ccc(-c4ccc(C#N)c(F)c4)cc3)nc2c1,302 to 305
20,Cc1cccc(-c2n[nH]cc2-c2ccc(F)c(-c3ccc(N4CCOCC4)nc3)c2)n1,85 to 87
21,O=C1CCCc2[nH]c3cc(F)ccc3c21,231 to 233
22,O=C(O)C1=Cc2cc(Br)ccc2S(=O)(=O)CC1,290 to 300
23,CC(C)(CO)NS(=O)(=O)c1cc(NC(=O)c2cnn3c(C(F)(F)F)cc(-c4ccc(C(F)(F)F)c(OCC(F)(F)F)c4)nc23)c(Cl)s1,264
24,CC(C)C(NC(=O)c1ccc(Cl)cc1)NC(=NC#N)Nc1cccnc1 (stereo not given),182 to 184
25,CC1(C)C(c2ccc(S(C)(=O)=O)cc2)=C(c2ccccc2)C1(C)O (stereo not given),114 to 115

row,SMILES,melting point [°C]
1,CCC(CC)Nc1nc2c(c(-c3c(C)cc(C)cc3C)cn2C)c(=O)n1C,174 to 176
2,CC(=O)OCC1SC(Oc2cc(C)cc(O)c2C(C)=O)C(OC(C)=O)C(OC(C)=O)C1OC(C)=O (stereo not given),162 to 164
3,CCOC(=O)c1[nH]c(CC)nc1C(C)C,177 to 178
4,COc1nc2ncnn2c(N2CCC(C)CC2)c1-c1ccc(F)cc1Cl,186
5,CC(C)C[C@H](N)C(=O)NCCNC(=O)OCc1ccccc1,148 to 149
6,O=C(NCC1CC1)N1CC(Oc2cccc(C(F)(F)F)c2)C1,132 to 133
7,O=C(Cl)Cc1ccc([N+](=O)[O-])cc1,47.5 to 49
8,O=C(NCc1ccc2c(c1)OCO2)c1ccc2[nH]c(=O)n(Cc3ccc4c(c3)OCO4)c(=O)c2c1,245
9,CC(=O)N(C)c1cnc2ccc(Cl)cc2c1-c1ccccc1,268 to 270
10,O=C(CCl)Nc1cc(Br)cc([N+](=O)[O-])c1NC(=O)CCl,172 to 173
11,O=C(O)COc1ccc(C2=CC(=O)CC(c3ccc(F)cc3)C2)c(Cl)c1Cl (stereo not given),190 to 192
12,CS(=O)(=O)Nc1ccc(F)cc1OCCCN1CCC(OC(c2ccccc2)c2ccccc2)CC1,52 to 56
13,Cc1cc(F)ccc1Nc1nc(N(C)c2ccccc2)c2cc(OCCN(C)C)ccc2n1,112 to 114
14,CCOC(=O)c1noc([C@@H](Cc2ccc3ccccc3c2)N(C)C(=O)OC(C)(C)C)n1,99 to 102
15,CCC(=NO)c1ccc(Sc2cc(F)cc([C@@]3(OC)CCO[C@@H]3C)c2)cc1 (racemic),113 to 114
16,COc1ccc(C(=O)N2CCN(c3cc4ccccc4cn3)CC2)cc1,156 to 159
17,CC(CO)(Oc1ccc(C(=O)c2ccc(Cl)cc2)cc1)C(=O)O (stereo not given),172 to 174
18,Cc1cc2[nH]c3ccncc3c(=O)n2n1,> 300
19,O=C(O)CCCCCCCn1cc(-c2ccccc2)c(-c2ccccc2)nc1=O,121 to 123
20,O=S(=O)(CC1CCCCN1S(=O)(=O)c1ccccc1)c1ccc(Cl)cc1 (stereo not given),129 to 131
21,O=c1cc(-c2cnccn2)ss1,181
22,Oc1ccc(CN2CC=CCC2)cc1O,> 300
23,O=C1c2ccccc2OC2=CCON12,144 to 148
24,O=C1c2ccc([N+](=O)[O-])cc2C(=O)N1CC(=O)N1c2ccccc2N(Cc2ccccc2)C(=O)[C@H]2CCC[C@H]21 (relative stereo),196 to 198
25,CCc1[nH]n(C2CCCC2)c2nc(-c3cccc(OCCN4CCOCC4)c3)nc(=O)c1-2,173 to 176
